Source: patent US8273705B2, “Conversion of apoptotic proteins” (The Burnham Institute, priority 2002, dated 2012)
d = 2'-deoxy (DNA); r = 2'-OH (RNA)

Experiments:
[1] = tested on: peripheral blood lymphocytes (PBLs); test: Apoptosis of peripheral blood lymphocytes; format: cell-based, human; conditions: oligonucleotide transfected
Description: Isolation and transfection of human peripheral blood lymphocytes (PBLs)—Leukocyte-enriched buffy coats from San Diego Blood Bank were diluted with 2 volumes of PBS, and PBLs were isolated by centrifuge on Ficoll-paque™ Plus (Amersham Pharmacia biotech). The mononuclear cells were cultured in RPMI containing 10% FBS and 20 μM Hepes. Freshly isolated cells (10^7 cells per transfection) were washed once with PBS containing 0.5% BSA and supernatant was completely discarded so that no residual PBS/BSA covers the pellet. The cells were resuspended in 100 μl of the human T Cell Nucleofector™ solution (Amexa biosystems) and very gently mixed with 1-4 μg DNA in 5 μl. The cell suspension was transferred into a cuvette supplied by Amexa biosystems and electroporated using U-14 program of Nucleofector™ device. The cells were removed from the cuvette quickly by adding 500 μl of the pre-warmed RPMI medium containing 10% FBS and 20 μM Hepes and transferred into 12 well plates containing 1.5 ml of pre-warmed culture medium.

Bcl-XL = biological target: T1, Bcl-XL (Homo sapiens, UniProt Q07817); test: TCTP/Bcl-XL interaction (yeast two-hybrid, immunoprecipitation in HEK293T); format: binding
T1 construct: expressed in transfected cells; host or cells: HEK293T
T1 sequence (Q07817 whole entry): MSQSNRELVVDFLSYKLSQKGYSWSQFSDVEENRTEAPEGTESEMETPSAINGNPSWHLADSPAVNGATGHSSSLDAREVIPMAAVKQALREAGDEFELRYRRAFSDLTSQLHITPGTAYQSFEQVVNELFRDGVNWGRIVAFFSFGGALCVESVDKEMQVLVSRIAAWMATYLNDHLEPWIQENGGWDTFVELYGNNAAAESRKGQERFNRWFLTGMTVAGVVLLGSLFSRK
Text: Bcl-XL cDNA was constructed into the pGilda yeast two-hybrid vector. Using pGilda-Bcl-XL as bait, a human testis cDNA library was used in yeast two-hybrid screening to screen for potential Bcl-XL interacting proteins. pGilda-Bcl-XL and a reporter plasmid pSH18-34 were co-transfected into EGY48 yeast cells. The transfectant yeast cells were then transfected in large scale with yeast two-hybrid library cDNA plasmids. Positive clones were identified through selection in Leucine-deficient media. A total of 95 positive colonies were identified. These positive clones were further examined for a second reporter expression by β-gal filter assays. Among these clones, 29 of them tested positive. These clones were further examined by mating assays to confirm the interaction with Bcl-XL. Ten positive clones were isolated and sequenced to reveal their identity. Two of them encode cDNAs identical to human Translationally-Controlled Tumor Protein (TCTP).
TCTP is a calcium-binding protein with no previous identified role in apoptosis regulation. […] Cell lysates were immunoprecipitated with polyclonal anti-GFP antibody. The immunoprecipitates or the lysates were blotted with anti-HA or anti-GFP antibodies, respectively.

cos-7 cells [2] = test: TCTP-induced apoptosis (DAPI) in cos-7 cells; format: cell-based
Description: Cells were fixed and stained with DAPI 48 hours after transfection (n≧200 total cells evaluated) and the percentage of apoptotic cells was calculated (mean±SD, n=3) (FIG. 7).

cos-7 cells [3] = test: TCTP/Bcl-XL co-localization in cos-7 cells; format: cell-based; conditions: cos-7, GFP-TCTP and RFP-Bcl-XL
Text: Images were photographed with a confocal microscope.

[4] = tested on: primary dopaminergic neurons; test: TR3 localization in primary dopaminergic neurons; format: cell-based, rat; conditions: 100 μM, one hour
Description: To further investigate TR3 targeting of mitochondria, rat primary neurons were treated with the dopaminergic neurotoxin 1-methyl-4-phenyl-1,2,3,6-tetrahydropyridine (MPTP). MPTP induces Parkinson's disease in animals. […] Neurons were identified by staining with neuron marker. TR3 and mitochondria (Hsp60) were visualized using confocal microscopy. […] TR3 was found only in the nucleus of non-treated neurons. Thus, TR3 mitochondrial localization plays a role in mediating the effect of dopaminergic neurotoxin in neurons.

MGC80-3 cells = test: TR3-dependent apoptosis in MGC80-3 cells with Bcl-2 siRNA; format: cell-based; conditions: control GFP-siRNA-transfected MGC80-3 cells
Description: Bcl-2 siRNAs and antisense oligonucleotides—The target siRNA SMARTPOOLs® for Bcl-2 and Bak and the siRNA oligonucleotide for TR3 (5′-CAG UCC AGC CAU GCU CCU dTdT) (SEQ ID NO: 2) were purchased from Dharmacon Research Inc. Target or control siRNA were transfected at a final concentration of 200 nM into cells at 40% confluency using Oligofectamine reagent (Invitrogen) according to the manufacturer's recommendations. After 48 h, cells were analyzed. Bcl-2 antisense oligonucleotide targeting Bcl-2 and negative control oligonucleotides were obtained from Calbiochem. They (2.5 μM) were transfected into cells at 60% confluency for 36 h before analysis.
The effect of inhibiting endogenous Bcl-2 expression on the TR3-dependent apoptosis in MGC80-3 cells was next analyzed. […] However, 3-Cl-AHPC-induced apoptosis was suppressed by more than half (about 60%) in Bcl-2 siRNA-transfected cells. Similar results were obtained in H460 lung cancer cells. […] Thus, Bcl-2 can manifest a pro-apoptotic phenotype in settings where TR3 is expressed and targets to mitochondria.

[5] = tested on: MGC80-3 gastric cancer cells; test: TR3 mitochondrial targeting in MGC80-3 gastric cancer cells; format: cell-based; conditions: MGC80-3 cells treated with 3-Cl-AHPC
Description: C. Small interfering RNA (siRNA)—To complement these gene transfection experiments, a small interfering (si)RNA approach was used to determine the effect of suppressing endogenous Bcl-2 expression on TR3 mitochondrial targeting. […] After 48 h, lysates were prepared and assayed by immunoblotting using anti-Bcl-2 and anti-β-actin antibodies.

TR3/Bcl-2 interaction = test: Co-IP of TR3 and Bcl-2 in H460 lung cancer cells; format: cell-based; conditions: 10^−6 M for 3 hours
Description: (§1) In addition to TPA, AHPN and its structural analogs also induce TR3 expression and TR3-dependent apoptosis in an epithelial cancer cell line. […] Lysates were then incubated with anti-Bcl-2 antibody. Immunoblotting of immunoprecipitates was conducted using anti-TR3 and anti-Bcl-2 antibodies.

H460 lung cancer cells = test: TR3 induction and apoptosis in H460 lung cancer cells; format: cell-based
Description: as §1
BH3-only proteins exert their apoptotic effects through either Bax or Bak. The involvement of Bax and Bak in Bcl-2-dependent apoptosis induced by TR3 was therefore examined.
To determine whether Bak, which was highly expressed in H460 cells, played a role in Bcl-2-dependent apoptosis induced by TR3, the effects of Bak siRNA transfection was examined. […] Thus, Bcl-2-dependent apoptosis induced by TR3 depends on multidomain pro-apoptotic Bcl-2-family proteins such as Bak.

293T cells = test: DAPI apoptosis assay in 293T cells; format: cell-based, human; conditions: 293T, transfected alone, 36 h, DAPI
Description: Apoptosis assays—For nuclear morphological change analysis, cells were trypsinized, washed with PBS, fixed with 3.7% paraformaldehyde, and stained with DAPI (4,6-diamidino-2-phenylindole) (50 μg/ml) to visualize the nuclei by UV-microscopy. The percentages of apoptotic cells were determined by counting 300 GFP-positive cells, scoring cells having nuclear fragmentation and/or chromatin condensation.
DAPI staining was used to study the apoptotic effect of TR3/Bcl-2 interaction. 293T cells were transfected with GFP-TR3/ΔDBD alone or together with Bcl-2. After 36 h, nuclei were stained by DAPI and nuclear fragmentation and chromatin condensation were identified. Cells were also stained with anti-Bcl-2 antibody, followed by TRITC-conjugated secondary antibody (Sigma). Bcl-2 and GFP-ΔDBD expression and nuclear morphology were visualized by fluorescence microscopy, and the two images were overlaid. […] But, when Bcl-2 was cotransfected, a significant amount of transfected cells underwent apoptosis. For example, approximately 4% of cells transfected with either TR3/ΔDBD or Bcl-2 were apoptotic, compared to 35% of cell transfected with both. […]
To characterize the pro-apoptotic mechanism of Bcl-2 in the setting of TR3-induced apoptosis, various TR3 mutants and Bcl-2 mutants were co-expressed in HEK293T cells. […] Cells displaying nuclear condensation or fragmentation were scored. […]

Molecule: 5′-CAG UCC AGC CAU GCU CCU dTdT (CAGUCCAGCCAUGCUCCUTT; siRNA; sugars from the 5' end r18 d2, backbone not given here) [TR3 siRNA, reference compound]
- TPA/ionomycin-induced apoptosis of PBLs [1]: partially inhibited

Molecule: TCTP: human Translationally-Controlled Tumor Protein
- interaction with Bcl-XL (Bcl-XL): interacts with Bcl-XL
- apoptosis (cos-7 cells [2]; expressed together with Bcl-XL versus without Bcl-XL, 48 hours): More apoptosis
- apoptosis (cos-7 cells [2]; over-expressed in cells): induces apoptosis
- subcellular localization with Bcl-XL (cos-7 cells [3]): recruits TCTP from cytosolic location to the mitochondria

Molecule: CN1CC=C(c2ccccc2)CC1 [MPTP, 1-methyl-4-phenyl-1,2,3,6-tetrahydropyridine]
- endogenous TR3 localization [4]: found exclusively in the cytoplasm and colocalized with mitochondria

Molecule: O=C(O)/C=C/c1ccc(-c2ccc(O)c(C34CC5CC(CC(C5)C3)C4)c2)c(Cl)c1 [3-Cl-AHPC]
- apoptosis (MGC80-3 cells): resulted in apoptosis
- endogenous TR3 localization [5]: targeted mitochondria
- co-immunoprecipitation of TR3 with anti-Bcl-2 antibody (TR3/Bcl-2 interaction): demonstrated co-immunoprecipitation of TR3
- apoptosis (H460 lung cancer cells): extensive apoptosis
- TR3 expression, mitochondrial targeting and apoptosis (H460 lung cancer cells; 10^−6 M for 3 hours): potently induces TR3 expression, mitochondrial targeting and apoptosis

Molecule: Bcl-2: Bcl-2 expression vector transfected into cells
- apoptotic cells (293T cells): approximately 4%
